According to patent publication US20260256792A1, “TREATMENT OF CHRONIC SPONTANEOUS URTICARIA BY ADMINISTERING (R)-2-[3-[4-AMINO-3-(2-FLUORO-4-PHENOXY-PHENYL)PYRAZOLO[3,4-D]PYRIMIDIN-1-YL]PIPERIDINE-1-CARBONYL]-4-METHYL-4-[4-(OXETAN-3-YL)PIPERAZIN-1-YL]PENT-2-ENENITRILE” (priority 2023, published 2026):

System: moderate-to-severe chronic spontaneous urticaria (CSU)
Assay: Phase 2 CSU study: itch severity score over 7 days (ISS7)
Assay type: in vivo, human
Settings: ITT
Source text: The study comprises a 12 week, randomized, double-blind, placebo-controlled, multi-center, dose-ranging efficacy and safety phase, followed by a 40 week open label extension (OLE) phase (see FIG. 1). The study consists of three phases and an optional OLE phase. […] Clinically, CSU is characterized by the spontaneous and recurrent appearance of pruritic hives. The proposed primary endpoints were the UAS7 at Week 12 in EU and EU reference countries and the ISS7 in the US. Regardless of where a participant was from, all assessments were the same. The UAS7 score is a composite score containing both the HSS7 and the ISS7. This allowed a global assessment of the two key components of urticaria: hives and itch. […] The UAS is a validated PRO measure. […] The daily UAS scores range from 0 to 6 point/day. […] Patients were to complete the UAS using the e-diary. […] The following secondary endpoints were to be analyzed using the same approach as for the primary endpoint: • Change from baseline in UAS7 at Week 4 • Change from baseline in UAS7 at Week 12 (for US and US reference countries) • Change from baseline in ISS7 at Week 12 (except US and US reference countries) • Change from baseline in HSS7 at Week 12

CC(C)(C=C(C#N)C(=O)N1CCC[C@@H](n2nc(-c3ccc(Oc4ccccc4)cc3F)c3c(N)ncnc32)C1)N1CCN(C2COC2)CC1 [rilzabrutinib, (R)-2-[3-[4-amino-3-(2-fluoro-4-phenoxy-phenyl)pyrazolo[3,4-d]pyrimidin-1-yl]piperidine-1-carbonyl]-4-methyl-4-[4-(oxetan-3-yl)piperazin-1-yl]pent-2-enenitrile]
ISS7 Change difference for rilzabrutinib vs. placebo LS Mean (95% CI) (400 mg BID, Week 2): −2.27
ISS7 Change from baseline LS Mean (SE) (400 mg BID, Week 2): −5.68 (0.80)
ISS7 Post-baseline Mean (SD) (400 mg BID, Week 2): 10.40 (5.75)
ISS7 % Change difference for rilzabrutinib vs. placebo LS Mean (95% CI) (400 mg BID, Week 3): −18.44%
ISS7 % Change from baseline LS Mean (SE) (400 mg BID, Week 3): −40.88 (5.26) %
ISS7 Change difference for rilzabrutinib vs. placebo LS Mean (95% CI) (400 mg BID, Week 3): −2.60
ISS7 Change from baseline LS Mean (SE) (400 mg BID, Week 3): −6.68 (0.84)
ISS7 Post-baseline Mean (SD) (400 mg BID, Week 3): 9.21 (6.17)
ISS7 % Change difference for rilzabrutinib vs. placebo LS Mean (95% CI) (400 mg BID, Week 4): −18.54%
ISS7 % Change from baseline LS Mean (SE) (400 mg BID, Week 4): −44.30 (5.62) %
ISS7 Change difference for rilzabrutinib vs. placebo LS Mean (95% CI) (400 mg BID, Week 4): −2.62
ISS7 Change from baseline LS Mean (SE) (400 mg BID, Week 4): −7.24 (0.89)
ISS7 Post-baseline Mean (SD) (400 mg BID, Week 4): 8.12 (6.28)
ISS7 % Change difference for rilzabrutinib vs. placebo LS Mean (95% CI) (400 mg BID, Week 5): −9.84%
ISS7 % Change from baseline LS Mean (SE) (400 mg BID, Week 5): -43.1%
ISS7 Change difference for rilzabrutinib vs. placebo LS Mean (95% CI) (400 mg BID, Week 5): −1.32
ISS7 Change from baseline LS Mean (SE) (400 mg BID, Week 5): −6.89 (0.88)
ISS7 Post-baseline Mean (SD) (400 mg BID, Week 5): 8.53 (6.95)
ISS7 % Change difference for rilzabrutinib vs. placebo LS Mean (95% CI) (400 mg BID, Week 6): −13.75%
ISS7 % Change from baseline LS Mean (SE) (400 mg BID, Week 6): −42.18 (5.84) %
ISS7 Change difference for rilzabrutinib vs. placebo LS Mean (95% CI) (400 mg BID, Week 6): −1.99
ISS7 Change from baseline LS Mean (SE) (400 mg BID, Week 6): −6.87 (0.93)
ISS7 Post-baseline Mean (SD) (400 mg BID, Week 6): 8.62 (6.58)
ISS7 % Change difference for rilzabrutinib vs. placebo LS Mean (95% CI) (400 mg BID, Week 7): −18.93%
ISS7 % Change from baseline LS Mean (SE) (400 mg BID, Week 7): −47.79 (5.68) %
ISS7 Change difference for rilzabrutinib vs. placebo LS Mean (95% CI) (400 mg BID, Week 7): −2.77
ISS7 Change from baseline LS Mean (SE) (400 mg BID, Week 7): −7.77 (0.91)
ISS7 Post-baseline Mean (SD) (400 mg BID, Week 7): 8.03 (6.39)
ISS7 % Change difference for rilzabrutinib vs. placebo LS Mean (95% CI) (400 mg BID, Week 8): −20.00%
ISS7 % Change from baseline LS Mean (SE) (400 mg BID, Week 8): −52.80 (5.92) %
ISS7 Change difference for rilzabrutinib vs. placebo LS Mean (95% CI) (400 mg BID, Week 8): −2.86
ISS7 Change from baseline LS Mean (SE) (400 mg BID, Week 8): −8.47 (0.93)
ISS7 Post-baseline Mean (SD) (400 mg BID, Week 8): 7.18 (6.69)
ISS7 % Change difference for rilzabrutinib vs. placebo LS Mean (95% CI) (400 mg BID, Week 9): −20.94%
ISS7 % Change from baseline LS Mean (SE) (400 mg BID, Week 9): −51.80 (5.94) %
ISS7 Change difference for rilzabrutinib vs. placebo LS Mean (95% CI) (400 mg BID, Week 9): −2.77
ISS7 Change from baseline LS Mean (SE) (400 mg BID, Week 9): −8.27 (0.96)
ISS7 Post-baseline Mean (SD) (400 mg BID, Week 9): 7.44 (7.20)
ISS7 % Change difference for rilzabrutinib vs. placebo LS Mean (95% CI) (400 mg BID, Week 10): −10.95%
ISS7 % Change from baseline LS Mean (SE) (400 mg BID, Week 10): −48.75 (6.31) %
ISS7 Change difference for rilzabrutinib vs. placebo LS Mean (95% CI) (400 mg BID, Week 10): −1.72
ISS7 Change from baseline LS Mean (SE) (400 mg BID, Week 10): −8.01 (1.01)
ISS7 Post-baseline Mean (SD) (400 mg BID, Week 10): 8.06 (7.29)
ISS7 % Change difference for rilzabrutinib vs. placebo LS Mean (95% CI) (400 mg BID, Week 11): −15.82%
ISS7 % Change from baseline LS Mean (SE) (400 mg BID, Week 11): −49.45 (6.23) %
ISS7 Change difference for rilzabrutinib vs. placebo LS Mean (95% CI) (400 mg BID, Week 11): −2.07
ISS7 Change from baseline LS Mean (SE) (400 mg BID, Week 11): −7.93 (0.99)
ISS7 Post-baseline Mean (SD) (400 mg BID, Week 11): 7.76 (7.01)
ISS7 % Change difference for rilzabrutinib vs. placebo LS Mean (95% CI) (400 mg BID, Week 12): −13.69%
ISS7 % Change from baseline LS Mean (SE) (400 mg BID, Week 12): −50.27 (6.54) %
ISS7 Change difference for rilzabrutinib vs. placebo LS Mean (95% CI) (400 mg BID, Week 12): −1.75
ISS7 Change from baseline LS Mean (SE) (400 mg BID, Week 12): −8.06 (1.02)
ISS7 Post-baseline Mean (SD) (400 mg BID, Week 12): 7.61 (7.18)
ISS7 % Change difference for rilzabrutinib vs. placebo LS Mean (95% CI) (400 mg QPM, Week 1): −8.87%
ISS7 % Change from baseline LS Mean (SE) (400 mg QPM, Week 1): −19.33 (5.35) %
ISS7 Change difference for rilzabrutinib vs. placebo LS Mean (95% CI) (400 mg QPM, Week 1): −1.47
ISS7 Change from baseline LS Mean (SE) (400 mg QPM, Week 1): −3.47 (0.79)
ISS7 Post-baseline Mean (SD) (400 mg QPM, Week 1): 13.08 (4.46)
ISS7 % Change difference for rilzabrutinib vs. placebo LS Mean (95% CI) (400 mg QPM, Week 2): −5.64%
ISS7 % Change from baseline LS Mean (SE) (400 mg QPM, Week 2): −25.13 (5.32) %
ISS7 Change difference for rilzabrutinib vs. placebo LS Mean (95% CI) (400 mg QPM, Week 2): −0.86
ISS7 Change from baseline LS Mean (SE) (400 mg QPM, Week 2): −4.27 (0.81)
ISS7 Post-baseline Mean (SD) (400 mg QPM, Week 2): 12.44 (4.70)
ISS7 % Change difference for rilzabrutinib vs. placebo LS Mean (95% CI) (400 mg QPM, Week 3): −7.34%
ISS7 % Change from baseline LS Mean (SE) (400 mg QPM, Week 3): −29.78 (5.33) %
ISS7 Change difference for rilzabrutinib vs. placebo LS Mean (95% CI) (400 mg QPM, Week 3): −0.97
ISS7 Change from baseline LS Mean (SE) (400 mg QPM, Week 3): −5.06 (0.85)
ISS7 % Change difference for rilzabrutinib vs. placebo LS Mean (95% CI) (400 mg QPM, Week 4): −5.09%
ISS7 % Change from baseline LS Mean (SE) (400 mg QPM, Week 4): −30.86 (5.64) %
ISS7 Change difference for rilzabrutinib vs. placebo LS Mean (95% CI) (400 mg QPM, Week 4): −0.67
ISS7 Change from baseline LS Mean (SE) (400 mg QPM, Week 4): −5.29 (0.90)
ISS7 Post-baseline Mean (SD) (400 mg QPM, Week 4): 11.30 (4.76)
ISS7 % Change difference for rilzabrutinib vs. placebo LS Mean (95% CI) (400 mg QPM, Week 5): 0.86%
ISS7 % Change from baseline LS Mean (SE) (400 mg QPM, Week 5): −32.42 (5.42) %
ISS7 Change difference for rilzabrutinib vs. placebo LS Mean (95% CI) (400 mg QPM, Week 5): 0.08
ISS7 Change from baseline LS Mean (SE) (400 mg QPM, Week 5): −5.48 (0.88)
ISS7 Post-baseline Mean (SD) (400 mg QPM, Week 5): 11.00 (4.61)
ISS7 % Change difference for rilzabrutinib vs. placebo LS Mean (95% CI) (400 mg QPM, Week 6): −8.64%
ISS7 % Change from baseline LS Mean (SE) (400 mg QPM, Week 6): −37.07 (5.96) %
ISS7 Change difference for rilzabrutinib vs. placebo LS Mean (95% CI) (400 mg QPM, Week 6): −1.39
ISS7 Change from baseline LS Mean (SE) (400 mg QPM, Week 6): −6.28 (0.95)
ISS7 Post-baseline Mean (SD) (400 mg QPM, Week 6): 10.23 (5.19)
ISS7 % Change difference for rilzabrutinib vs. placebo LS Mean (95% CI) (400 mg QPM, Week 7): −9.66%
ISS7 % Change from baseline LS Mean (SE) (400 mg QPM, Week 7): −38.52 (5.84) %
ISS7 Change difference for rilzabrutinib vs. placebo LS Mean (95% CI) (400 mg QPM, Week 7): −1.37
ISS7 Change from baseline LS Mean (SE) (400 mg QPM, Week 7): −6.37 (0.93)
ISS7 Post-baseline Mean (SD) (400 mg QPM, Week 7): 10.60 (5.27)
ISS7 % Change difference for rilzabrutinib vs. placebo LS Mean (95% CI) (400 mg QPM, Week 8): −5.60%
ISS7 % Change from baseline LS Mean (SE) (400 mg QPM, Week 8): −38.39 (6.03) %
ISS7 Change difference for rilzabrutinib vs. placebo LS Mean (95% CI) (400 mg QPM, Week 8): −0.61
ISS7 Change from baseline LS Mean (SE) (400 mg QPM, Week 8): −6.22 (0.96)
